The values that follow come from ChEMBL document CHEMBL3137667, “[Drug-induced liver injury; fourteenth updated edition of the bibliographic database of liver injuries and related drugs]” (Gastroenterol Clin Biol, 2004).

Molecules are shown by their SMILES.

Data set [1] is described as follows: Highest frequency of moderate liver toxicity observed during clinical trials, expressed as a percentage. [column '% BIOL' in source]. To be noted: human.
The nature of data set [2]: Highest frequency of acute liver toxicity observed during clinical trials, expressed as a percentage. [column '% AIGUE' in source]. To be noted: human.
Data set [3] in a line: Presence of at least one case with successful reintroduction. [column 'REINT' in source]. To be noted: human.
A short description of data set [4]: Times to onset, minimal and maximal, observed in the indexed observations. [column 'DELAI' in source]. To be noted: human.
For data set [5] the following is noted: human, serum.
For data set [6] the following is noted: human, serum. This is another data set of the same source.
For data set [7] the following is noted: human.
For data set [8] the following is noted: human. The source holds these as a separate data set.
For data set [9] the following is noted: human. This is another data set of the same source.
For data set [10] the following is noted: human, serum, 4383 h.
For data set [11] the following is noted: human. This is another data set of the same source.
The conditions of data set [12]: human. This is another data set of the same source.
The conditions of data set [13]: human. The source holds these as a separate data set.
The conditions of data set [14]: human. This is another data set of the same source.
The conditions of data set [15]: human. The source holds these as a separate data set.
For data set [16] the following is noted: human. This is another data set of the same source.
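Wherever Hepatotoxicity (association with vascular disease) is given: count of indexed literature references reporting vascular liver injury in humans, e.g. peliosis hepatitis, hepatic veno-occlusive disease or Budd-Chiari syndrome.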
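Wherever Hepatotoxicity (benign tumour) is given: value is a count of indexed literature references citing a benign tumour confirmed by histopathology.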
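Wherever Hepatotoxicity (choleostasis) is given: human cholestatic liver injury, shown by histopathology or by peak ALT or AST elevation over alkaline phosphatase ratio below 2, value counts indexed literature reports.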
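Wherever Hepatotoxicity (chronic liver disease) is given: chronic liver injury confirmed by histopathology or persistently raised serum aminotransferase activity beyond 6 months, value given as the count of indexed literature references.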
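Wherever Hepatotoxicity (cirrhosis) is given: value is a count of indexed literature references reporting cirrhosis confirmed by histopathology.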
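Wherever Hepatotoxicity (cytolytic) is given: human cytolytic liver injury, shown by histopathology or by a ratio above 5 of peak ALT or AST elevation to alkaline phosphatase elevation, value counts indexed references.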
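Wherever Hepatotoxicity (granulomatous hepatitis) is given: value is a count of indexed literature references reporting granulomatous liver disease confirmed by histopathology.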
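Wherever Hepatotoxicity (malignant tumour) is given: malignant tumour confirmed by histopathology, value gives the count of indexed literature references reporting it.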
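Wherever Hepatotoxicity (severe hepatitis) is given: human clinical data: severe hepatitis, meaning potentially life-threatening liver failure or clinically observed cases, the value counts how many indexed literature references report it.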
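Wherever Hepatotoxicity (steatosis) is given: steatosis confirmed by histopathology, value is the count of indexed references.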

Turning to `CC[C@H](C)[C@H]1NC(=O)[C@@H](NC(=O)[C@@H](CC(C)C)N(C)C(=O)[C@@H]2CCCN2C(=O)C(C)O)[C@@H](C)OC(=O)[C@H](Cc2ccc(OC)cc2)N(C)C(=O)[C@@H]2CCCN2C(=O)[C@H](CC(C)C)NC(=O)[C@@H](C)C(=O)[C@H](C(C)C)OC(=O)C[C@@H]1O` (stereo not given in full) [DIDEMNIN B], the “Hepatotoxicity (moderate)” value amounted to 32% in [1] and 3 in data set [5]. The “Hepatotoxicity (acute)” value is listed as 5.3% in [2] and 2 in data set [6]. The “Hepatotoxicity (successful reintroduction)” value in [3] was “yes”. In data set [4], the “Hepatotoxicity (time to onset)” value came out at 1 week. Further, the “Hepatotoxicity (cytolytic)” value in [7] came to 0. In addition, the “Hepatotoxicity (choleostasis)” value in [8] came out at 1. In data set [9], the “Hepatotoxicity (severe hepatitis)” value turned out to be 0. Moreover, the “Hepatotoxicity (chronic liver disease)” value in data set [10] is reported as 0. In addition, the “Hepatotoxicity (cirrhosis)” value in [11] was 0. For the same compound, the “Hepatotoxicity (granulomatous hepatitis)” value in data set [12] was 0. Moreover, the “Hepatotoxicity (association with vascular disease)” value in data set [13] stood at 0. The “Hepatotoxicity (steatosis)” value in [14] is listed as 0. Also, in [15], the “Hepatotoxicity (malignant tumour)” value is on record as 0. In addition, the “Hepatotoxicity (benign tumour)” value in data set [16] is on record as 0.
With `CCCCC(CC)COC(=O)CC(C(=O)OCC(CC)CCCC)S(=O)(=O)O` (stereo not given) [DOCUSATE], the figures for the “Hepatotoxicity (moderate)” value in [1] and in [5] were 0% and 1, respectively. The “Hepatotoxicity (acute)” value in data set [2] was 0%; in data set [6], 0. Besides, the “Hepatotoxicity (successful reintroduction)” value in data set [3] was “yes”. Moreover, in [4], the “Hepatotoxicity (time to onset)” value amounted to 2 days - 1 year. In addition, in data set [7], the “Hepatotoxicity (cytolytic)” value stood at 0. The “Hepatotoxicity (choleostasis)” value in data set [8] is on record as 0. In data set [9], the “Hepatotoxicity (severe hepatitis)” value worked out at 0. The “Hepatotoxicity (chronic liver disease)” value in data set [10] was 1. For the same compound, in data set [11], the “Hepatotoxicity (cirrhosis)” value was determined as 0. In [12], the “Hepatotoxicity (granulomatous hepatitis)” value is listed as 0. Besides, in data set [13], the “Hepatotoxicity (association with vascular disease)” value is 0. In addition, in data set [14], the “Hepatotoxicity (steatosis)” value is listed as 0. Besides, in data set [15], the “Hepatotoxicity (malignant tumour)” value turned out to be 0. The “Hepatotoxicity (benign tumour)” value in data set [16] is 0.
As for `C=C(CC)C(=O)c1ccc(OCC(=O)O)c(Cl)c1Cl` [ETHACRYNIC ACID], the “Hepatotoxicity (moderate)” value in data set [1] amounted to 0%; in [5] it was 0. The “Hepatotoxicity (acute)” value in [2] came out at 0%; in [6] it was 2. Further, in [3], the “Hepatotoxicity (successful reintroduction)” value is recorded as “yes”. Also, the “Hepatotoxicity (time to onset)” value in [4] amounted to 2 weeks - 4 weeks. In addition, the “Hepatotoxicity (cytolytic)” value in data set [7] was 2. Further, the “Hepatotoxicity (choleostasis)” value in data set [8] was determined as 0. Further, in data set [9], the “Hepatotoxicity (severe hepatitis)” value was 2. The “Hepatotoxicity (chronic liver disease)” value in data set [10] came out at 0. Further, the “Hepatotoxicity (cirrhosis)” value in data set [11] came to 0. Also, the “Hepatotoxicity (granulomatous hepatitis)” value in data set [12] is 0. Besides, in [13], the “Hepatotoxicity (association with vascular disease)” value stood at 0. For the same compound, the “Hepatotoxicity (steatosis)” value in data set [14] is given as 0. Also, in [15], the “Hepatotoxicity (malignant tumour)” value is recorded as 0. Also, the “Hepatotoxicity (benign tumour)” value in data set [16] was 0.
Take `O=C(O)CCC(=O)c1ccc(-c2ccccc2)cc1` [FENBUFEN]: the “Hepatotoxicity (moderate)” value in data set [1] is 25%; in data set [5], 7. Also, the “Hepatotoxicity (acute)” value in data set [2] is 0%; in [6], 5. Moreover, the “Hepatotoxicity (successful reintroduction)” value in [3] is recorded as “yes”. In addition, in data set [4], the “Hepatotoxicity (time to onset)” value amounted to 10 days - 2 weeks. Also, the “Hepatotoxicity (cytolytic)” value in [7] turned out to be 1. Moreover, the “Hepatotoxicity (choleostasis)” value in data set [8] amounted to 2. Further, the “Hepatotoxicity (severe hepatitis)” value in [9] amounted to 0. For the same compound, in [10], the “Hepatotoxicity (chronic liver disease)” value was determined as 0. The “Hepatotoxicity (cirrhosis)” value in data set [11] worked out at 0. Also, the “Hepatotoxicity (granulomatous hepatitis)” value in data set [12] amounted to 0. Besides, the “Hepatotoxicity (association with vascular disease)” value in data set [13] turned out to be 0. In addition, in [14], the “Hepatotoxicity (steatosis)” value is recorded as 0. The “Hepatotoxicity (malignant tumour)” value in [15] was 0. Besides, the “Hepatotoxicity (benign tumour)” value in data set [16] was 0.
`O=C1c2ccccc2C(=O)C1c1ccc(F)cc1` [FLUINDIONE]: the “Hepatotoxicity (moderate)” value in [1] worked out at 0%; in [5] it was 0. Moreover, the “Hepatotoxicity (acute)” value in data set [2] is reported as 0%; in data set [6] it was 7. Also, the “Hepatotoxicity (successful reintroduction)” value in [3] is given as “yes”. Further, the “Hepatotoxicity (time to onset)” value in [4] is 1 week - 3 months. In data set [7], the “Hepatotoxicity (cytolytic)” value is 5. In addition, in [8], the “Hepatotoxicity (choleostasis)” value stood at 1. Also, the “Hepatotoxicity (severe hepatitis)” value in data set [9] was 0. Besides, the “Hepatotoxicity (chronic liver disease)” value in data set [10] turned out to be 0. Also, in data set [11], the “Hepatotoxicity (cirrhosis)” value was determined as 0. Besides, the “Hepatotoxicity (granulomatous hepatitis)” value in [12] is listed as 0. For the same compound, in data set [13], the “Hepatotoxicity (association with vascular disease)” value was 0. In addition, the “Hepatotoxicity (steatosis)” value in [14] is on record as 0. Besides, in data set [15], the “Hepatotoxicity (malignant tumour)” value is 0. In addition, the “Hepatotoxicity (benign tumour)” value in data set [16] is listed as 0.
Regarding `CC(C(=O)O)c1ccc(-c2ccccc2)c(F)c1` (stereo not given) [FLURBIPROFEN], the “Hepatotoxicity (moderate)” value in data set [1] is 8.1%; in [5] it was 4. In addition, the “Hepatotoxicity (acute)” value in data set [2] is reported as 0%; in [6], 3. Moreover, the “Hepatotoxicity (successful reintroduction)” value in data set [3] is listed as “yes”. Also, the “Hepatotoxicity (time to onset)” value in [4] was found to be 1 day - 2 months. Further, the “Hepatotoxicity (cytolytic)” value in data set [7] was 2. In data set [8], the “Hepatotoxicity (choleostasis)” value is listed as 1. Also, in data set [9], the “Hepatotoxicity (severe hepatitis)” value came out at 0. Moreover, the “Hepatotoxicity (chronic liver disease)” value in data set [10] came to 0. Moreover, in data set [11], the “Hepatotoxicity (cirrhosis)” value is reported as 0. In data set [12], the “Hepatotoxicity (granulomatous hepatitis)” value is recorded as 0. The “Hepatotoxicity (association with vascular disease)” value in [13] is listed as 0. In addition, the “Hepatotoxicity (steatosis)” value in data set [14] was found to be 0. In addition, in data set [15], the “Hepatotoxicity (malignant tumour)” value came out at 0. The “Hepatotoxicity (benign tumour)” value in data set [16] turned out to be 0.
As for `C[C@@H]1O[C@@H]1P(=O)(O)O` [FOSFOMYCIN], the “Hepatotoxicity (moderate)” value amounted to 23.8% in [1] and 8 in data set [5]. Moreover, the “Hepatotoxicity (acute)” value in data set [2] was 0%; in data set [6], 1. The “Hepatotoxicity (successful reintroduction)” value in [3] is listed as “yes”. The “Hepatotoxicity (time to onset)” value in data set [4] was found to be 3 days - 4 days. Also, the “Hepatotoxicity (cytolytic)” value in data set [7] turned out to be 1. The “Hepatotoxicity (choleostasis)” value in [8] was 0. For the same compound, the “Hepatotoxicity (severe hepatitis)” value in [9] is given as 0. Besides, in data set [10], the “Hepatotoxicity (chronic liver disease)” value turned out to be 0. In data set [11], the “Hepatotoxicity (cirrhosis)” value was determined as 0. The “Hepatotoxicity (granulomatous hepatitis)” value in data set [12] worked out at 0. In addition, in data set [13], the “Hepatotoxicity (association with vascular disease)” value is 0. In [14], the “Hepatotoxicity (steatosis)” value is reported as 0. Also, the “Hepatotoxicity (malignant tumour)” value in data set [15] is recorded as 0. Further, in data set [16], the “Hepatotoxicity (benign tumour)” value is given as 0.
As for `NS(=O)(=O)c1cc2c(cc1Cl)NCNS2(=O)=O` [HYDROCHLOROTHIAZIDE], the entries for the “Hepatotoxicity (moderate)” value in [1] and in data set [5] were 2.4% and 2, respectively. Further, the “Hepatotoxicity (acute)” value in data set [2] turned out to be 0%; in [6], 4. In data set [3], the “Hepatotoxicity (successful reintroduction)” value was “yes”. Moreover, the “Hepatotoxicity (time to onset)” value in data set [4] was 17 days - 14 months. Further, the “Hepatotoxicity (cytolytic)” value in data set [7] is reported as 3. In [8], the “Hepatotoxicity (choleostasis)” value turned out to be 1. The “Hepatotoxicity (severe hepatitis)” value in data set [9] is 1. The “Hepatotoxicity (chronic liver disease)” value in data set [10] is listed as 0. In addition, the “Hepatotoxicity (cirrhosis)” value in [11] is 0. Besides, the “Hepatotoxicity (granulomatous hepatitis)” value in [12] is 0. Besides, the “Hepatotoxicity (association with vascular disease)” value in data set [13] is given as 0. Besides, the “Hepatotoxicity (steatosis)” value in data set [14] worked out at 0. Further, the “Hepatotoxicity (malignant tumour)” value in data set [15] was determined as 0. Also, in [16], the “Hepatotoxicity (benign tumour)” value amounted to 0.
For the compound `Nc1cc(-c2ccncc2)c[nH]c1=O` [INAMRINONE], the “Hepatotoxicity (moderate)” value in [1] is 33%; in [5], 9. For the same compound, the “Hepatotoxicity (acute)” value in data set [2] is 0%; in data set [6], 6. For the same compound, in [3], the “Hepatotoxicity (successful reintroduction)” value is listed as “yes”. Moreover, the “Hepatotoxicity (time to onset)” value in [4] was found to be 1 week - 3 weeks. In addition, the “Hepatotoxicity (cytolytic)” value in [7] was 2. In addition, the “Hepatotoxicity (choleostasis)” value in data set [8] stood at 2. For the same compound, the “Hepatotoxicity (severe hepatitis)” value in [9] was 0. The “Hepatotoxicity (chronic liver disease)” value in data set [10] worked out at 0. In [11], the “Hepatotoxicity (cirrhosis)” value is 0. Moreover, in data set [12], the “Hepatotoxicity (granulomatous hepatitis)” value was 0. The “Hepatotoxicity (association with vascular disease)” value in data set [13] is given as 0. For the same compound, in data set [14], the “Hepatotoxicity (steatosis)” value is 0. Also, the “Hepatotoxicity (malignant tumour)” value in data set [15] was 0. In addition, the “Hepatotoxicity (benign tumour)” value in data set [16] worked out at 0.
Consider `CN(C)CCCn1c2c(c3ccccc31)CCCCCC2` [IPRINDOLE], for which the “Hepatotoxicity (moderate)” value in [1] (Liver) is recorded as 0%; in data set [5], 1. Moreover, the “Hepatotoxicity (acute)” value is reported as 0% in data set [2] (Liver) and 6 in data set [6]. Further, in [3], the “Hepatotoxicity (successful reintroduction)” value is given as “yes”. In addition, the “Hepatotoxicity (time to onset)” value in data set [4] was found to be 2 weeks - 1 month. Besides, the “Hepatotoxicity (cytolytic)” value in [7] (Liver) turned out to be 1. Further, the “Hepatotoxicity (choleostasis)” value in data set [8] (Liver) came to 6. Besides, the “Hepatotoxicity (severe hepatitis)” value in data set [9] (Liver) is recorded as 0. In addition, the “Hepatotoxicity (chronic liver disease)” value in data set [10] is recorded as 0. The “Hepatotoxicity (cirrhosis)” value in data set [11] is reported as 0. Moreover, the “Hepatotoxicity (granulomatous hepatitis)” value in data set [12] (Liver) is on record as 0. Also, the “Hepatotoxicity (association with vascular disease)” value in [13] is recorded as 0. The “Hepatotoxicity (steatosis)” value in [14] worked out at 0. Moreover, in [15], the “Hepatotoxicity (malignant tumour)” value amounted to 0. Besides, the “Hepatotoxicity (benign tumour)” value in data set [16] was determined as 0.
